# Values quoted from earlier work, collected in US20240170163A1, “SYSTEMS AND METHODS FOR DETECTING NEW DRUG PROPERTIES IN TARGET-BASED DRUG-DRUG SIMILARITY NETWORKS” (priority 2021, published 2024).
# Columns and labels:
# Klebsiella pneumoniae = details: in vitro
# Candida = details: liquid formulation, in vitro
# Candida albicans = details: in vitro
# prostate carcinoma cells = details: in vitro
# [1] = test system: chronic lymphocytic leukemia (CLL)
# [2] = test system: PR-transfected MDA-MB-231 cells
smiles,measurement,setting,value
N=C(N)NC(=O)c1nc(Cl)c(N)nc1N [Amiloride],activation of the dendritic cells,dendritic cells,inhibits the activation
same,inflammation,dendritic cells; besides its diuretic effects,ameliorates the inflammation
FC(F)OC(Cl)C(F)(F)F (stereo not shown) [Isoflurane],inhibitory effects on cultures of Klebsiella pneumoniae,Klebsiella pneumoniae,excellent inhibitory effects
same,anti-Candida activity compared with Amphotericin B,Candida,better anti-Candida activity
same,inhibitory effects on cultures of Candida albicans,Candida albicans,excellent inhibitory effects
COC(F)(F)C(Cl)Cl [Methoxyflurane],inhibitory effects on cultures of Klebsiella pneumoniae,Klebsiella pneumoniae,excellent inhibitory effects
same,inhibitory effects on cultures of Candida albicans,Candida albicans,excellent inhibitory effects
NC(Cn1ccc(=O)c(O)c1)C(=O)O (stereo not shown) [Mimosine],cell proliferation of prostate carcinoma cells,prostate carcinoma cells,attenuates cell proliferation
COc1cc([C@@H]2c3cc4c(cc3[C@H](O)[C@H]3COC(=O)[C@H]23)OCO4)cc(OC)c1OC [Podofilox],cytotoxicity in chronic lymphocytic leukemia (CLL),[1],potent cytotoxic agent
CC(=O)[C@H]1CC[C@H]2[C@@H]3CCC4=CC(=O)CC[C@]4(C)[C@H]3CC[C@]12C [Progesterone],expression of genes involved in cell proliferation and metastasis,[2],suppressed the expression
CCN(CC)CCCC(C)Nc1c2ccc(Cl)cc2nc2ccc(OC)cc12 (stereo not shown) [Quinacrine],DNA damage in breast cancer,breast cancer,induces DNA damage
same,apoptosis / cell cycle effect in breast cancer,breast cancer,produces apoptosis by blocking cells in S-phase
same,topoisomerase activity in breast cancer,breast cancer,inhibits topoisomerase activity
